Experiment [1] can be described thus: Professional panel tasting of 0% fat strawberry yoghurt (Example 4). As for the experimental part:
Four yoghurt samples were prepared: • A: Yoghurt 0% fat+strawberry flavour+sucralose (25%) 300 ppm • B: Yoghurt 0% fat+strawberry flavour+sucralose (25%) 300 ppm+10 ppm N-gluconyl ethanolamme (as prepared in Example 2) • C: Yoghurt 0% fat+strawberry flavour+4% sugar • D: Yoghurt 0% fat+strawberry flavour+4% sugar+10 ppm N-gluconyl ethanolamine (as prepared in Example 2)
(§1) The yoghurts were tasted by a professional panel.

Experiment [2] is described as follows: Professional panel tasting of 3% fat strawberry yoghurt (Example 5). The conditions noted are these: sample B: Yoghurt 3% fat+strawberry flavour+4% sugar+10 ppm; reference A without: tart, acidic. As for the experimental part: Two yoghurt samples were prepared: • A: Yoghurt 3% fat+strawberry flavour+4% sugar • B: Yoghurt 3% fat+strawberry flavour+4% sugar+10 ppm N-gluconyl ethanolamine (as prepared in Example 2)
as §1

A short description of experiment [3]: Professional panel tasting of strawberry ice cream, 8% vegetable fat (Example 6). The following applies: sample B: Ice cream (8% vegetable fat)+strawberry flavour+10 ppm, reference A without: sweet, creamy aftertaste. On the procedure:
Two ice cream (8% vegetable fat) samples were prepared: • A: Ice cream+strawberry flavour • B: Ice cream+strawberry flavour+10 ppm N-gluconyl ethanolamine (as prepared in Example 2)
The ice creams were tasted by a professional panel. There was general agreement among the group on the taste descriptions: • A: sweet, strawberry, creamy aftertaste.

The nature of experiment [4]: Professional panel tasting of still lemon beverages (Example 7). The following applies: sample C: tap water with sucrose (6.2 brix)+lemon flavour+30 ppm; B (6.2 brix, without): empty, less sweet; A (7 brix): sweet. As for the experimental part:
Three still beverages were prepared: • A: Tap water with sucrose (7 brix) and 1.5 g/l of citric acid+lemon flavour • B: Tap water with sucrose (6.2 brix) and 1.5 g/l of citric acid+lemon flavour • C: Tap water with sucrose (6.2 brix)+lemon flavour+N-gluconyl ethanolamine 30 ppm (as prepared in Example 2)
The beverages were tasted by a professional panel.

Experiment [5] can be described thus: Professional panel tasting of standard chicken soup (Example 8). The conditions noted are these: 7 ppm, versus soup without. On the procedure:
A standard chicken soup was prepared. The quantity was split in two and to one half 7 ppm of N-gluconyl ethanolamine, as prepared in example 2, was added. The soups were tasted by a professional panel.

The nature of experiment [6]: Professional panel tasting of sweet strawberry milk samples of different fat content (Example 10). The conditions noted are these: for taste description versus same milk without the substance: 6% sucrose, strawberry flavour, 10 ppm. On the procedure: Six sweet milk samples, containing 6% sucrose, flavoured with a strawberry flavour were prepared:
1. Zero fat containing milk drink
2. Zero fat containing milk drink+10 ppm gluconyl ethanolamine (as prepared in example 2)
4. 1.5% fat milk+10 ppm gluconyl ethanolamine (as prepared in example 2)
6. Full fat milk+10 ppm gluconyl ethanolamine (as prepared in example 2)
(§2) All samples were tasted by a professional panel. There was general agreement about the differences in taste between the samples.

Experiment [7] in a line: Professional panel tasting of instant vegetable soup of different fat content (Example 11). On the procedure: Four samples of standard instant vegetable soup were prepared:
1. Soup containing 2% fat
2. Soup containing 2% fat+7 ppm gluconyl ethanolamine (as prepared in example 2)
3. Soup containing 4% fat
4. Soup containing 4% fat+7 ppm gluconyl ethanolamine (as prepared in example 2)
5. Soup containing 6% fat
6. Soup containing 6% fat+7 ppm gluconyl ethanolamine (as prepared in example 2)
as §2

The nature of experiment [8]: Professional panel evaluation of cigarettes with tobacco casings (Example 12). The following applies: casing B (2 g per 100 g casing mixture, 1 g/kg tobacco) versus casing A without. On the procedure: The following mixtures were used as casings to improve the tobacco taste and improvement of the body of the smoke:
dosage of this mixture is 1 g/kg tobacco
Cigarettes were prepared from both types of tobacco, which were evaluated by a professional panel.

Experiment [9] is described as follows: Professional panel tasting of salted potato chips (Example 13). The conditions noted are these: potato chips with salt (0.7%) and 100 ppm; reference chips: salty, slightly rancid, oily-greasy and cardboard-like. The source says: One sample of potato chips was seasoned with salt (0.7%).
Another sample of potato chips was seasoned with salt (0.7%) and flavoured with 100 ppm
N-gluconyl ethanolamine (as prepared in example 2).
The chips were tasted by a professional panel.
The reference chips were described as salty, slightly rancid, oily-greasy and cardboard-like.

Experiment [10] in a line: Professional panel tasting of ketchup (Example 14). The conditions noted are these: ketchup pH 3.5, 20 ppm; base: strongly acidic, acetic acid-like, flat tomato profile. As for the experimental part: Ketchup was prepared using 506 g of water, 150 g of tomato puree (28-30 Brix), 30 g of modified starch (Colflo 67 ex National Starch), 22 g of salt, 2 g of stabilizer Deltagel CE 1364) and 115 g of vinegar (12% acetic acid in water), by first mixing the dry ingredients, subsequently adding water and stirring until a homogeneous paste was obtained. Tomato puree and vinegar were than added and the mixture was stirred again and heated to a temperature of 95° C. for 1 minute. The mixture was filled off hot and allowed to cool down.
The pH was determined to be 3.5.
Part of the ketchup was mixed with 20 ppm N-gluconyl ethanolamine (as prepared in example 2).
The two ketchups were tasted and compared by a professional panel.
The ketchup base was described as strongly acidic, acetic acid-like, with a flat tomato profile.

Experiment [11] in a line: Professional panel tasting of vinaigrette (Example 15). The conditions noted are these: 30 ppm, original: strongly acidic, acetic acid-like, thin, peaky. As for the experimental part: A vinaigrette was prepared using 815.8 g of water, 100 g of sunflower oil, 12 g of salt, 30 g of sugar, 45 g of vinegar (12% acetic acid), 4 g of xanthan gum and 0.2 g of turmeric powder by mixing all ingredients intensively to obtain a homogeneous emulsion.
To a part of the vinaigrette 30 ppm of N-gluconyl ethanolamine (as prepared in example 2) was added.
Both vinaigrettes were tasted by a professional panel.
The original vinaigrette was described as strongly acidic, acetic acid-like, thin, peaky.

Experiment [12] in a line: Sensory panel evaluation of tomato soups with reduced salt (Example 9). On the procedure:
10 gram of each composition was mixed with 100 ml hot water to obtain tomato soups. The different soups were tasted and evaluated by a sensory panel.

In the case of `O=C(NCCO)[C@H](O)[C@@H](O)[C@H](O)[C@H](O)CO` [N-gluconyl ethanolamine], the taste description entry in experiment [1] (sample B: Yoghurt 0% fat+strawberry flavour+sucralose (25%) 300 ppm+10 ppm, reference A without: sweet, bitter, metallic, aftertaste) is “fuller more round and natural taste, more sugar sweetness, significantly less bitter metallic aftertaste”; in experiment [1] (sample D: Yoghurt 0% fat+strawberry flavour+4% sugar+10 ppm, reference C without: tart, acidic) it was “fuller more round and natural taste, more intense sweet”; in [2], “much fuller, more fatty, more round and natural taste, more intense sweet”; in experiment [3], “fuller, more round and natural taste, enhanced sweetness and creaminess”; in experiment [4] it was “fuller, more round and natural taste, more intense sweet taste than B”; in [5], “more tasteful, more complete, more body, more fatty”. Besides, the taste description entry was “salty, exhibiting more fatty fullness, and masking of undesired notes of the reference chips” in [9]; “mildly acidic, less acetic acid-like, exhibiting more sun-ripened tomato character, more fullness” in experiment [10]; “acidic, more rounded, more full, more fat impression, more smooth” in experiment [11]. The “taste comparison with higher-fat milk without the substance” value in experiment [6] (sample 2 (zero fat+10 ppm) versus sample 3 (1.5% fat milk)) was “quite similar and the main difference was that sample 2 and 4 were slightly more sweet”; in experiment [6] (sample 4 (1.5% fat+10 ppm) versus sample 5 (full fat milk)), “quite similar and the main difference was that sample 2 and 4 were slightly more sweet”. Also, the “taste description versus same milk without the substance” value in experiment [6] (sample 2: zero fat milk drink, versus sample 1) was “fuller, more round natural taste, more creamy and more sweet”; in experiment [6] (sample 4: 1.5% fat milk, versus sample 3), “fuller, more round natural taste, more creamy and more sweet”; in experiment [6] (sample 6: full fat milk, versus sample 5) it was “fuller, more round natural taste, more creamy and more sweet”. The “taste comparison with higher-fat soup without the substance” value in experiment [7] (sample 2 (2% fat+7 ppm) versus sample 3 (4% fat)) was “quite similar and the main difference was that sample 2 and 4 tasted slightly more sweet”; in [7] (sample 4 (4% fat+7 ppm) versus sample 5 (6% fat)) it was “quite similar and the main difference was that sample 2 and 4 tasted slightly more sweet”. Moreover, the “taste description versus same soup without the substance” value was “more fatty, more natural, more round and more sweet” in experiment [7] (sample 2: vegetable soup 2% fat+7 ppm, versus sample 1); “more fatty, more natural, more round and more sweet” in experiment [7] (sample 4: vegetable soup 4% fat+7 ppm, versus sample 3); “more fatty, more natural, more round and more sweet” in experiment [7] (sample 6: vegetable soup 6% fat+7 ppm, versus sample 5). The “smoke evaluation of cigarettes” value in [8] was “significantly more “body” in the smoke and significantly more “expanding” tobacco smoke”.

In the case of `O=C(NCCOP(=O)(O)O)[C@H](O)[C@@H](O)[C@H](O)[C@H](O)CO` [N-gluconyl ethanolamine phosphate], the perceived saltiness result in experiment [12] (product C (3.5 g salt, 3.5 g Example 3 product per 100 g) versus product A (control, 7 g salt)) is reported as “comparable to that of product A”. Besides, the panel preference entry in experiment [12] (product C: tomato soup powder, 50% reduced salt, 3.5 g of Example 3 product per 100 g, 10 g in 100 ml hot water, versus product B (maltodextrin instead)) is listed as “clearly preferred over product B”. The taste description entry in [12] (product C: tomato soup, 50% reduced salt, 3.5 g Example 3 product per 100 g powder) was ““more taste”, “more impact”, “more umami”, “more kokumi” and “salivating””.

Source of the values: US20080038429A1, “Taste Improving Substances” (QUEST INTERNATIONAL SERVICES B,V,, priority 2004, published 2008).
